What was measured:
[1] = Pharmacokinetic parameter bioavailability in rat was reported after oral administration of 50 mg/Kg measured on free base; type: ADME, organism-based; conditions: in vivo
[2] = Plasma levels following administration of 50 mg/Kg perorally and concentration of compound in plasma 24 hr after administration; type: ADME, cell-free; conditions: po, read-out: Plasma level
[3] = solubility was determined using free base at pH 7.4; type: physicochemical; conditions: buffer
[4] = pKa value at a pH of […].value ranges from […]-[…].; type: physicochemical; conditions: pH 7.4
HUVEC = experiment: Inhibition of basal unstimulated growth of human endothelial cell; type: functional, cell-based
Mus musculus [5] = experiment: Inhibition of Established Calu-6 tumor xenografts implanted subcutaneously in athymic mice measured after 21 days of dosing of […] mg/kg perorally.; type: functional; conditions: Calu-6, 504 h, route oral
Mus musculus [6] = experiment: Inhibition of Established Calu-6 tumor xenografts implanted subcutaneously in athymic mice measured after 21 days of dosing of 50 mg/kg perorally.; type: functional; conditions: Calu-6, 504 h, route oral
Mus musculus [7] = experiment: Inhibition of Established Calu-6 tumor xenografts implanted subcutaneously in athymic mice measured after 21 days of dosing of 12.5 mg/kg perorally.; type: functional; conditions: Calu-6, 504 h, route oral
[8] = Plasma levels following administration of 50 mg/Kg perorally and concentration in plasma 6 hr after administration; type: ADME, cell-free; conditions: po, read-out: Plasma level
Mus musculus [9] = experiment: Inhibition of Calu-6 tumor xenografts implanted subcutaneously in athymic mice measured after 21 days of dosing of 100 mg/kg perorally.; type: functional; conditions: Calu-6, 504 h, route oral
physchem = conditions: octanol/water, pH 7.4
[10] = Pharmacokinetic parameter half-life in dog was reported after intravenous administration of 5 mg/Kg measured on free base; conditions: in vivo
[11] = Pharmacokinetic parameter bioavailability in dog was reported after oral administration of 25 mg/Kg measured on free base; conditions: in vivo
[12] = Pharmacokinetic parameter half-life in rat was reported after intravenous administration of 5 mg/Kg measured on free base; conditions: in vivo

- bioavailability [1]: > 50%
- concentration at 24 h [2]: 3 µM
- solubility [3]: 330 µM
- pKa [4]: 9.4
- concentration at 6 h [8]: 5.5 µM
- logD (physchem): 2.6
- half-life [10]: 8.3 h
- bioavailability [11]: > 50%
- half-life [12]: 15 h
SMILES: COc1cc2c(Nc3ccc(Br)cc3F)ncnc2cc1OCC1CCN(C)CC1.Cl
- IC50 (HUVEC): > 3000 nM
- inhibition in vivo at 25 mg/kg (Mus musculus [5]): 51%
- inhibition in vivo at 50 mg/kg (Mus musculus [6]): 67%
- inhibition in vivo at 12.5 mg/kg (Mus musculus [7]): 36%
- inhibition in vivo at 100 mg/kg (Mus musculus [9]): 79%

From ChEMBL document CHEMBL1135889, “Novel 4-anilinoquinazolines with C-7 basic side chains: design and structure activity relationship of a series of potent, orally active, VEGF receptor tyrosine kinase inhibitors” (J Med Chem, 2002)
